Measurements: patent publication US12390465B2, “Coumarin derivative for therapy or prophylaxis of a cell proliferative disorder” (The Institute of Cancer Research: Royal Cancer Hospital, priority 2017, dated 2025)

Assays:
Type in all cases: in vivo, human
[1] = tested on: KRAS mutant and NRAS mutant IgG lambda multiple myeloma; assay: Example 1: oral treatment of a multiple myeloma patient, 3 weeks on/1 week off; settings: for FLCk: pre 325 mg/L, 4 mg twice weekly
Procedure: A potassium salt of compound (I) (the potassium salt being also referred to as the “IMP” in this example) was orally administered to a patient with KRAS mutant and NRAS mutant IgG lambda multiple myeloma at a dose of 4 mg twice weekly (Tuesday and Friday) in 4-week cycles consisting of 3 weeks of treatment followed by 1 week of rest (3 weeks on/1 week off). Dexamethasone was not used in combination with the IMP.
The patient started dosing on 29 Nov., 2016. […] initial and ongoing toxicity was intermittent Grade 1 diarrhoea that may be related to the IMP.
The patient had previously been treated with: • Autologous stem cell transplant • Proteasome inhibitor • Immunomodulatory drug • Cyclophosphamide+Dexamethasone+Thalidomide • Melphalan • Lenalidomide • Cyclophosphamide+Bortezomib • Dexamethasone • Spine T3-T12, 5 fractions (radiotherapy)

[2] = tested on: KRAS mutant non-small-cell lung cancer; assay: Example 2: oral treatment of a non-small-cell lung cancer patient with stepwise dose reduction; settings: for best response, reduction in target lesions by RECIST 1.1: CT scan
Procedure: A potassium salt of compound (I) (the potassium salt being also referred to as the “IMP” in this example) was orally administered to a patient with KRAS mutant non-small-cell lung cancer.
The patient started treatment on 1 Sep., 2014. The IMP was first administered at a dose of 4 mg twice weekly in 4-week cycles consisting of 4 weeks of treatment (4 mg 4 wk on). In Cycle 9, due to Grade 3 maculopapular rash, the dosage was reduced to 3.2 mg twice weekly in 4-week cycles (3.2 mg 4 wk on). In Cycle 22, due to Grade 3 facial rash, the dosage was reduced again to a 3 weeks on/1 week off schedule with 3.2 mg twice weekly (3.2 mg 3 wk on/1 wk off).
The horizontal axis (X-axis) represents the treatment cycle number and the vertical axis (Y-axis) represents the rate of change of tumor size from baseline. The tumor size was measured by CT scan. The best responses of the dosing schedules 4 mg 4 wk on, 3.2 mg 4 wk on, and 3.2 mg 3 wk on/1 wk off were 58% reduction, 61% reduction, and 68% reduction in target lesions by RECIST 1.1, respectively. Treatment of the patient by the IMP is being continued as of 18 Apr., 2018 (at Cycle 48, equivalent to 3.6 years) without any Grade 2 or higher rash being observed.
The patient had previously been treated with: • Carboplatin/Pemetrexed • Pemetrexed • Docetaxel • Pleurodesis (October 2012) (surgery)

[3] = tested on: HRAS mutant apocrine adenocarcinoma of the scalp; assay: Example 3: oral treatment of an apocrine adenocarcinoma patient following the dosing guidance; settings: for reduction in tumor size: CT scan
Procedure: A potassium salt of compound (I) (the potassium salt being also referred to as the “IMP” in this example) was orally administered to a patient with HRAS mutant apocrine adenocarcinoma of the scalp. Apocrine adenocarcinoma of the scalp is a cutaneous sweat gland carcinoma. The patient was diagnosed in 2014, and had radiotherapy and surgery twice before treatment with the IMP.
Treatment of the patient by the IMP was started on 8th Jan., 2018 at a dose of 4 mg twice weekly in 4-week cycles. In Cycle 1 Week 3, the patient had Grade 2 acneiform rash and Grade 2 diarrhoea and thus the dosage was reduced to a 3 weeks on/1 week off schedule with 4 mg twice weekly. The grade of acneiform rash was one (1) in Cycle 2 Day 1, […] in Cycle 2 Day 22, and two (2) in Cycle 3 Day 1. Thus, the dose at Cycle 3 Day 1 was not reduced to 3.2 mg and was determined as 4 mg.
Treatment of the patient by the IMP is ongoing as of 30th Apr., 2018 (Cycle 5 Day 1) without any Grade 2 or higher rash or diarrhoea being observed.

[4] = tested on: solid cancers; assay: Earlier dosing regimen (twice weekly, 4 mg per administration) in patients; settings: some cases
Procedure: In regard to the usage and dosage of compound (I) or a salt thereof, a potassium salt of compound (I) is known to be administered to patients with solid cancers such as non-small-cell lung cancer, ovarian cancer, endometrial cancer, and colorectal cancer twice weekly at a dose of 4 mg per administration (see non patent document 1).

[5] = 4 mg twice weekly in 4-week cycles, Cycle 1 Week 3

CNS(=O)(=O)[N-]c1nccc(Cc2c(C)c3ccc(Oc4ncccn4)cc3oc2=O)c1F.[K+] [IMP]
rash related to the IMP (grade) ([1]; 4 mg twice weekly oral, no dexamethasone): 2 Grade
diarrhoea (toxicity grade) ([1]; 4 mg twice weekly oral, no dexamethasone, initial and ongoing, intermittent, may be related to the IMP): 1 Grade
response as per IMWG criteria ([1]; 4 mg twice weekly oral, ongoing): partial response
FLCk ([1]; after 1 cycle): 161 mg/L
FLCk ([1]; after 2 cycles): 264 mg/L
rash (grade) after the reductions ([2]; 3.2 mg twice weekly, 3 wk on/1 wk off): 1 Grade
facial rash (grade) ([2]; 3.2 mg twice weekly, 4 wk on, Cycle 22): 3 Grade
maculopapular rash (grade) ([2]; 4 mg twice weekly, 4 wk on, Cycle 9): 3 Grade
rash observed (grade) during continued treatment ([2]; as of Cycle 48 (3.6 years)): < 2 Grade
response by RECIST 1.1 ([2]; maintained at Cycle 40, 3.2 mg 3 wk on/1 wk off): partial response
best response, reduction in target lesions by RECIST 1.1 ([2]; schedule 3.2 mg 3 wk on/1 wk off): 68%
best response, reduction in target lesions by RECIST 1.1 ([2]; schedule 3.2 mg 4 wk on): 61%
best response, reduction in target lesions by RECIST 1.1 ([2]; schedule 4 mg 4 wk on): 58%
acneiform rash (grade) [3, 5]: 2 Grade
diarrhoea (grade) [3, 5]: 2 Grade
response by RECIST 1.1 (tumor size by CT scan) ([3]; 4 mg twice weekly, 3 weeks on/1 week off): partial response
acneiform rash (grade) ([3]; 4 mg twice weekly, 3 weeks on/1 week off, Cycle 2 Day 1): 1 Grade
acneiform rash (grade) ([3]; 4 mg twice weekly, 3 weeks on/1 week off, Cycle 2 Day 22): 3 Grade
acneiform rash (grade) ([3]; 4 mg twice weekly, 3 weeks on/1 week off, Cycle 3 Day 1): 2 Grade
reduction in tumor size ([3]; Cycle 2 Day 22): 54%
reduction in tumor size ([3]; Cycle 4 Day 15): 58%
diarrhoea observed (grade) during ongoing treatment ([3]; as of Cycle 5 Day 1): < 2 Grade
rash observed (grade) during ongoing treatment ([3]; as of Cycle 5 Day 1): < 2 Grade

CNS(=O)(=O)Nc1nccc(Cc2c(C)c3ccc(Oc4ncccn4)cc3oc2=O)c1F [compound (I)]
adverse event leading to unplanned dose interruption and/or dose reduction [4]: worsening of skin rash
